# Where “and” joins values, the source holds several entries; their conditions need not be identical. Equal values may be shown once. Toxic doses and inconclusive results are not listed. Peptide text beside a SMILES is read from it. * marks the point of attachment. Cbz = O=C(OCc1ccccc1)*
# Test system: P388 leukemia ip, CD2F1 mice, survival T/C
# Experiment: NCI In Vivo Anticancer Drug Screen. Data for tumor model P388 Leukemia (intraperitoneal) in CD2F1 (CDF1) mice
# Settings: endpoint: median survival time, higher = longer survival
# Procedure, shortened: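 Mice carrying the transplanted tumor received test compound or vehicle. Survival was recorded in each group, and the value is the treated-group measurement divided by that of the vehicle-treated control group.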
# [1] = dose: 50.0 mg/kg/injection, schedule: Q01DX009 (ip), vehicle: saline with Tween-80
# [2] = dose: 100.0 mg/kg/injection, schedule: Q01DX009 (ip), vehicle: saline with Tween-80
# [3] = dose: 200.0 mg/kg/injection, schedule: Q01DX009 (ip), vehicle: saline with Tween-80
# [4] = dose: 25.0 mg/kg/injection, schedule: Q01DX009 (ip), vehicle: saline
# [5] = dose: 50.0 mg/kg/injection, schedule: Q01DX009 (ip), vehicle: Klucel (hydroxypropylcellulose) (HPC)
# [6] = dose: 100.0 mg/kg/injection, schedule: Q01DX009 (ip), vehicle: Klucel (hydroxypropylcellulose) (HPC)
# [7] = dose: 60.0 mg/kg/injection, schedule: Q01DX005 (ip), vehicle: saline with Tween-80
# [8] = dose: 120.0 mg/kg/injection, schedule: Q01DX005 (ip), vehicle: saline with Tween-80
# [9] = dose: 240.0 mg/kg/injection, schedule: Q01DX005 (ip), vehicle: saline with Tween-80
# [10] = dose: 50.0 mg/kg/injection, schedule: Q01DX009 (ip), vehicle: saline
# [11] = dose: 50.0 mg/kg/injection, schedule: Q01DX005 (ip), vehicle: saline with Tween-80
# [12] = dose: 100.0 mg/kg/injection, schedule: Q01DX005 (ip), vehicle: saline with Tween-80
# [13] = dose: 200.0 mg/kg/injection, schedule: Q01DX005 (ip), vehicle: saline with Tween-80
# [14] = dose: 50.0 mg/kg/injection, schedule: Q01DX005 (ip), vehicle: saline
# [15] = dose: 100.0 mg/kg/injection, schedule: Q01DX005 (ip), vehicle: saline
# [16] = dose: 200.0 mg/kg/injection, schedule: Q01DX009 (ip), vehicle: Klucel (hydroxypropylcellulose) (HPC)
# [17] = dose: 25.0 mg/kg/injection, schedule: Q01DX009 (ip), vehicle: saline with Tween-80
compound,measurement,setting,value
CC(C)(C)CC(C)(C)c1ccc(OCc2cccc(Cl)c2)cc1,T/C,[1],97 % of control
same,T/C,[2],96 % of control
same,T/C,[3],95 % of control
[Cu+2].[NH-]C(CO)C(=O)O.[NH-]C(Cc1cnc[nH]1)C(=O)O (stereo unspecified),T/C,"dose: 6.25 mg/kg/injection, schedule: Q01DX009 (ip), vehicle: saline",97 % of control
same,T/C,[4],114 % of control
CC1(C)CC(C)(OC(=O)c2ccc(F)cc2)N=N1 (stereo unspecified),T/C,"dose: 12.5 mg/kg/injection, schedule: Q01DX009 (ip), vehicle: other",103 % of control
same,T/C,"dose: 25.0 mg/kg/injection, schedule: Q01DX009 (ip), vehicle: other",113 % of control
same,T/C,"dose: 50.0 mg/kg/injection, schedule: Q01DX009 (ip), vehicle: other",108 % of control
same,T/C,"dose: 100.0 mg/kg/injection, schedule: Q01DX009 (ip), vehicle: other",113 % of control
same,T/C,"dose: 200.0 mg/kg/injection, schedule: Q01DX009 (ip), vehicle: other",118 % of control
CC1=NN(C(=O)c2ccncc2)C(=O)C1N=Nc1ccc(Cl)cc1 (stereo unspecified),T/C,[1],104 % of control
same,T/C,[2],99 % of control
same,T/C,[3],105 % of control
Brc1nn[nH]n1,T/C,[5],101 % of control
same,T/C,[6],90 % of control
COC(=O)c1cc(-c2ccc(N)cc2)c2c(=O)n(-c3ccccc3)[nH]c2n1,T/C,[7],100 % of control
same,T/C,[8],91 % of control
same,T/C,[9],87 % of control
CCCCOC(=O)Nc1ccc(C)c(NC(=O)OCCCC)c1,T/C,[10],100 % of control
same,T/C,"dose: 100.0 mg/kg/injection, schedule: Q01DX009 (ip), vehicle: saline",102 % of control
same,T/C,"dose: 200.0 mg/kg/injection, schedule: Q01DX009 (ip), vehicle: saline",100 % of control
Cc1ccc(N2CC(=O)N3CCCC(C)N3C(=O)C2)cc1 (stereo unspecified),T/C,[11],99 % of control
same,T/C,[12],99 % of control
same,T/C,[13],99 % of control
COc1ccc(C2CC(=O)c3c(O)cc(OC4OC(CO)C(O)C(O)C4OC4OC(C)C(O)C(O)C4O)cc3O2)cc1O (stereo unspecified),T/C,[11],102 % of control
same,T/C,[12],100 % of control
same,T/C,[13],92 % of control
O=Cc1cccc(OC(=O)Oc2cccc(C=O)c2)c1,T/C,"dose: 100.0 mg/kg/injection, schedule: Q01DX001 (ip), vehicle: saline with Tween-80",101 % of control
same,T/C,"dose: 200.0 mg/kg/injection, schedule: Q01DX001 (ip), vehicle: saline with Tween-80",99 % of control
same,T/C,"dose: 400.0 mg/kg/injection, schedule: Q01DX001 (ip), vehicle: saline with Tween-80",104 % of control
O=C(NN=C1c2ccccc2-c2ccccc21)C(F)(F)F,T/C,"dose: 50.0 mg/kg/injection, schedule: Q01DX005 (ip), vehicle: Klucel + Tween-80",100 % of control
same,T/C,"dose: 100.0 mg/kg/injection, schedule: Q01DX005 (ip), vehicle: Klucel + Tween-80",100 % of control
same,T/C,"dose: 200.0 mg/kg/injection, schedule: Q01DX005 (ip), vehicle: Klucel + Tween-80",100 % of control
CCN(CC)CCNc1ccc(COC(C)=O)c2oc3ccccc3c(=O)c12,T/C,"dose: 6.25 mg/kg/injection, schedule: Q01DX005 (ip), vehicle: saline with Tween-80",111 % of control
same,T/C,"dose: 12.5 mg/kg/injection, schedule: Q01DX005 (ip), vehicle: saline with Tween-80",118 % of control
C=CCC(C=C=CCN(C)C)CO (stereo unspecified),T/C,[14],103 % of control
same,T/C,[15],104 % of control
COc1ccc(NC(=S)Nc2ccccc2C(F)(F)F)c(OC)c1,T/C,[5],99 % of control
same,T/C,[6],95 % of control
same,T/C,[16],94 % of control
Cc1cc(OC(=O)Nc2ccc(C)c([N+](=O)[O-])c2)c(Br)cc1Cl,T/C,"dose: 12.5 mg/kg/injection, schedule: Q01DX009 (ip), vehicle: saline",100 % of control
same,T/C,[4],93 % of control
same,T/C,"dose: 50.0 mg/kg/injection, schedule: Q01DX009 (ip), vehicle: saline + alcohol",96 % of control
same,T/C,[10],100 % of control
same,T/C,"dose: 100.0 mg/kg/injection, schedule: Q01DX009 (ip), vehicle: saline + alcohol",99 % of control
Cc1c(Cl)cccc1N=Cc1ccc(C=Nc2cccc(Cl)c2C)cc1,T/C,[5],94 % of control
same,T/C,[6],92 % of control
same,T/C,[16],91 % of control
Nc1ccc(SSc2ccc(Nc3ccnc4cc(Cl)ccc34)cc2)cc1,T/C,[11],92 % of control
same,T/C,[12],93 % of control
same,T/C,[13],91 % of control
COC(=O)C1CCCN1C(=O)C(CCCCNC(=O)OCc1ccccc1)NC(=O)OCc1ccccc1 (stereo unspecified) (Cbz-Lys(Cbz)-Pro-OMe; configuration not given here),T/C,[14],106 % of control
same,T/C,[15],103 % of control
same,T/C,"dose: 200.0 mg/kg/injection, schedule: Q01DX005 (ip), vehicle: saline",105 % of control
CC1=CC(=O)C(O)=C/C1=C\C=C\c1ccccc1,T/C,"dose: 2.5 mg/kg/injection, schedule: Q01DX009 (ip), vehicle: saline with Tween-80",110 % of control
same,T/C,"dose: 5.0 mg/kg/injection, schedule: Q01DX009 (ip), vehicle: saline with Tween-80",104 % of control
same,T/C,"dose: 10.0 mg/kg/injection, schedule: Q01DX009 (ip), vehicle: saline with Tween-80",103 % of control
CN(C)CCSc1n[nH]c(=O)[nH]c1=O,T/C,"dose: 25.0 mg/kg/injection, schedule: Q01DX005 (ip), vehicle: distilled water + alcohol",101 % of control
same,T/C,"dose: 50.0 mg/kg/injection, schedule: Q01DX005 (ip), vehicle: distilled water + alcohol",95 % of control
same,T/C,"dose: 100.0 mg/kg/injection, schedule: Q01DX005 (ip), vehicle: distilled water + alcohol",100 % of control
same,T/C,"dose: 200.0 mg/kg/injection, schedule: Q01DX005 (ip), vehicle: distilled water + alcohol",96 % of control
Cc1c2cc[n+]([O-])cc2c(C)c2c1oc1ccccc12,T/C,[17],115 % of control
same,T/C,[2],154 % of control
same,T/C,[3],165 % of control and 173 % of control
Cc1ccc(S(=O)(=O)CC(=O)CC(=O)C(N)=O)cc1,T/C,[7],109 % of control
same,T/C,[8],108 % of control
same,T/C,[9],104 % of control
CN(C)C=Nc1ccc(Cl)cc1,T/C,[17],99 % of control
same,T/C,[1],105 % of control
CC1OC(O[C@H]2/C=C/C=C/C=C/C=C/C=C/C=C/C=C/[C@H](C)[C@@H](O)[C@@H](C)[C@H](C)OC(=O)C[C@H](O)C[C@H](O)CC[C@@H](O)[C@H](O)C[C@H](O)C[C@]3(O)C[C@H](O)[C@@H](C(=O)O)[C@H](C2)O3)C(O)C(N)C1O (stereo partly specified),T/C,"dose: 1.0 mg/kg/injection, schedule: Q01DX009 (ip), vehicle: saline",90 % of control and 95 % of control
same,T/C,"dose: 2.0 mg/kg/injection, schedule: Q01DX009 (ip), vehicle: saline",119 % of control and 90 % of control
same,T/C,"dose: 4.0 mg/kg/injection, schedule: Q01DX009 (ip), vehicle: saline",98 % of control and 102 % of control and 105 % of control
same,T/C,"dose: 8.0 mg/kg/injection, schedule: Q01DX009 (ip), vehicle: saline",100 % of control and 106 % of control and 87 % of control
same,T/C,"dose: 16.0 mg/kg/injection, schedule: Q01DX009 (ip), vehicle: saline",122 % of control and 94 % of control
CC1(C)OCC(CO)(Nc2nc(N3CC3)nc(N3CC3)n2)CO1,T/C,"dose: 0.62 mg/kg/injection, schedule: Q01DX009 (ip), vehicle: saline",120 % of control
same,T/C,"dose: 1.25 mg/kg/injection, schedule: Q01DX009 (ip), vehicle: saline",158 % of control and 164 % of control
same,T/C,"dose: 2.5 mg/kg/injection, schedule: Q01DX009 (ip), vehicle: saline",199 % of control and 229 % of control
same,T/C,"dose: 3.75 mg/kg/injection, schedule: Q01DX009 (ip), vehicle: saline",187 % of control
same,T/C,"dose: 5.0 mg/kg/injection, schedule: Q01DX009 (ip), vehicle: saline",89 % of control and 98 % of control
Cc1ccc(S(=O)(=O)C2C(C)(C)C2(Sc2ccccc2)[Si](C)(C)C)cc1 (stereo unspecified),T/C,"dose: 60.0 mg/kg/injection, schedule: Q01DX005 (ip), vehicle: Klucel (hydroxypropylcellulose) (HPC)",102 % of control
same,T/C,"dose: 120.0 mg/kg/injection, schedule: Q01DX005 (ip), vehicle: Klucel (hydroxypropylcellulose) (HPC)",106 % of control
same,T/C,"dose: 240.0 mg/kg/injection, schedule: Q01DX005 (ip), vehicle: Klucel (hydroxypropylcellulose) (HPC)",92 % of control
COc1ccc2nc(C)c(C(=O)O)c(C(=O)O)c2c1,T/C,"dose: 50.0 mg/kg/injection, schedule: Q01DX009 (ip), vehicle: suspension in saline",99 % of control
same,T/C,"dose: 100.0 mg/kg/injection, schedule: Q01DX009 (ip), vehicle: suspension in saline",103 % of control
same,T/C,"dose: 200.0 mg/kg/injection, schedule: Q01DX009 (ip), vehicle: suspension in saline",108 % of control
CC1CN1C1=C(Cl)C(=O)C(N2CC2C)=C(Cl)C1=O (stereo unspecified),T/C,"dose: 3.12 mg/kg/injection, schedule: Q01DX009 (ip), vehicle: Klucel (hydroxypropylcellulose) (HPC)",115 % of control

# Reference: PubChem BioAssay AID330 (DTP/NCI, 2004)
